Tests used:
Assay in all cases: relative viability (nuclei count vs DMSO), 5 days (fraction); higher = more cells survive
[1] = compound: COC1=CC=C(C=C1)COC2=C(C=C(C=C2)CC3=CN=C(N=C3N)N)OC [GW-2580] + O=C(CCCCCCC(=O)Nc1ccccc1)NO [Vorinostat] (partner 1 µM)
In short: (§1)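 For relative viability, nuclei counts in treated wells were divided by those in vehicle wells. Lung cancer cell lines had been pin-tool dosed in 1536-well plates the day after seeding and cultured for 5 days, then fixed and stained in one step (final 0.05% Triton X-100, 1% formaldehyde, 1 ug/ml Hoechst) and imaged at 4×. Doses were one drug alone or a fixed anchor-drug dose plus five library-drug doses (not always all listed) in √10 steps, and values are duplicate-plate medians.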

[2] = compound: Cc1cnc(Nc2ccc(OCCN3CCCC3)cc2)nc1Nc1cccc(S(=O)(=O)NC(C)(C)C)c1 [Fedratinib] + CC1(C)CCC(c2ccc(Cl)cc2)=C(CN2CCN(c3ccc(C(=O)NS(=O)(=O)c4ccc(N[C@H](CCN5CCOCC5)CSc5ccccc5)c(S(=O)(=O)C(F)(F)F)c4)cc3)CC2)C1 [Navitoclax] (partner 0.5 µM)
In short: as §1

[3] = compound: Cc1cnc(Nc2ccc(OCCN3CCCC3)cc2)nc1Nc1cccc(S(=O)(=O)NC(C)(C)C)c1 [Fedratinib] + CS(=O)(=O)N1CCN(Cc2cc3nc(-c4cccc5[nH]ncc45)nc(N4CCOCC4)c3s2)CC1 [Pictilisib] (partner 1 µM)
In short: as §1

[4] = compound: Cc1cnc(Nc2ccc(OCCN3CCCC3)cc2)nc1Nc1cccc(S(=O)(=O)NC(C)(C)C)c1 [Fedratinib] + C[C@]1(O)C[C@@H](c2nc(-c3ccc4ccc(-c5ccccc5)nc4c3)c3c(N)nccn32)C1 [Linsitinib] (partner 1 µM)
In short: as §1

[5] = compound: COC1=CC=C(C=C1)COC2=C(C=C(C=C2)CC3=CN=C(N=C3N)N)OC [GW-2580] + COc1cccc2cc(-c3nc([C@H]4CC[C@H](C(=O)O)CC4)n4ncnc(N)c34)[nH]c12 [OSI-027] (partner 0.5 µM)
In short: as §1

Cell Line | relative viability ([1]; first compound 0.08 µM) | relative viability ([1]; first compound 0.8 µM) | relative viability ([1]; first compound 2.53 µM) | relative viability ([1]; first compound 8 µM) | relative viability ([2]; first compound 0.1 µM) | relative viability ([2]; first compound 0.3162 µM) | relative viability ([2]; first compound 1 µM) | relative viability ([3]; first compound 0.1 µM) | relative viability ([3]; first compound 0.3162 µM) | relative viability ([3]; first compound 1 µM) | relative viability ([4]; first compound 0.1 µM) | relative viability ([4]; first compound 0.3162 µM) | relative viability ([4]; first compound 1 µM) | relative viability ([5]; first compound 0.08 µM) | relative viability ([5]; first compound 0.8 µM) | relative viability ([5]; first compound 2.53 µM) | relative viability ([5]; first compound 8 µM)
CAL-12T | 0.777 | 0.697 | 0.978 | 0.859 | 1 | 1.15 | 1.13 | 0.454 | 0.615 | 0.162 | 0.739 | 0.819 | 0.853 | 0.609 | 0.853 | 0.526 | 0.699
COR-L23 | 0.495 | 0.516 | 0.426 | 0.524 | 0.936 | 1.06 | 0.899 | 0.891 | 0.809 | 0.707 | 1.04 | 0.906 | 0.759 | 1.01 | 0.994 | 0.655 | 0.753
COR-L 105 | 0.833 | 0.926 | 0.561 | 0.697 | 0.568 | 0.657 | 0.689 | 0.364 | 0.471 | 0.284 | 0.951 | 0.817 | 0.827 | 0.662 | 0.807 | 0.713 | 0.676
Calu-6 |  |  |  |  | 0.828 | 0.795 | 0.727 | 0.845 | 0.866 | 0.736 | 1.02 | 0.953 | 0.917 |  |  |  | 
ChaGo-K-1 | 0.743 | 0.726 | 0.768 | 0.794 | 0.786 | 1.11 | 0.425 | 0.487 | 1 | 0.289 |  |  |  | 0.625 | 0.548 | 0.532 | 0.575

Source: the supplement of paper PMC10307832
